These results are taken from US20030199692A1, “Propanoic acid derivatives that inhibit the binding of integrins to their receptors” (priority 1999, published 2003).

SMILES strings stand for the structures.

T1 sequence (P13612 34-1032): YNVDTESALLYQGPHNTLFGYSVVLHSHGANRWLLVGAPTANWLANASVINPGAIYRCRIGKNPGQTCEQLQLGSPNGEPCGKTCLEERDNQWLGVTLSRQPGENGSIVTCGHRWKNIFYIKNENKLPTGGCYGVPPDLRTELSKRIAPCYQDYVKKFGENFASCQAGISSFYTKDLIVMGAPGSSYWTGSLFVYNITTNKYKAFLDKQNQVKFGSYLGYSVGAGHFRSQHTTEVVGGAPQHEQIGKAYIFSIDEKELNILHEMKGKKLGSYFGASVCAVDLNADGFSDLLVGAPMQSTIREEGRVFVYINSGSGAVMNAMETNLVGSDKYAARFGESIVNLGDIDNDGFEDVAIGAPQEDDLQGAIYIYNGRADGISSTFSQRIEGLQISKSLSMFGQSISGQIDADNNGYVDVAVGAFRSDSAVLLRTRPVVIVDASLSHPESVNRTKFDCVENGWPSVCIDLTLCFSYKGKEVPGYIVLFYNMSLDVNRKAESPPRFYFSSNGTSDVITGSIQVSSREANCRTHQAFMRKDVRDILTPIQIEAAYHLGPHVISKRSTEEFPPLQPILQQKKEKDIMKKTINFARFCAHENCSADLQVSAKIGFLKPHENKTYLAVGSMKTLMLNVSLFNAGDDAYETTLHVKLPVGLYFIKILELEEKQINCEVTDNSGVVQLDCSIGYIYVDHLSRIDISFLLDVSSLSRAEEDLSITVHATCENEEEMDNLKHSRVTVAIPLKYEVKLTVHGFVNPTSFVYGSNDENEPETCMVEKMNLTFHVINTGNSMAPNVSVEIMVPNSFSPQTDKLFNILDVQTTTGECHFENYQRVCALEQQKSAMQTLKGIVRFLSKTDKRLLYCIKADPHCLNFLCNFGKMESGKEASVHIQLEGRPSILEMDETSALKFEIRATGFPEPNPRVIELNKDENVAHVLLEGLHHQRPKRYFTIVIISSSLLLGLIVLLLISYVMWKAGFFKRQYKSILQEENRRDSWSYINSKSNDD
T1 sequence (P05556 21-798): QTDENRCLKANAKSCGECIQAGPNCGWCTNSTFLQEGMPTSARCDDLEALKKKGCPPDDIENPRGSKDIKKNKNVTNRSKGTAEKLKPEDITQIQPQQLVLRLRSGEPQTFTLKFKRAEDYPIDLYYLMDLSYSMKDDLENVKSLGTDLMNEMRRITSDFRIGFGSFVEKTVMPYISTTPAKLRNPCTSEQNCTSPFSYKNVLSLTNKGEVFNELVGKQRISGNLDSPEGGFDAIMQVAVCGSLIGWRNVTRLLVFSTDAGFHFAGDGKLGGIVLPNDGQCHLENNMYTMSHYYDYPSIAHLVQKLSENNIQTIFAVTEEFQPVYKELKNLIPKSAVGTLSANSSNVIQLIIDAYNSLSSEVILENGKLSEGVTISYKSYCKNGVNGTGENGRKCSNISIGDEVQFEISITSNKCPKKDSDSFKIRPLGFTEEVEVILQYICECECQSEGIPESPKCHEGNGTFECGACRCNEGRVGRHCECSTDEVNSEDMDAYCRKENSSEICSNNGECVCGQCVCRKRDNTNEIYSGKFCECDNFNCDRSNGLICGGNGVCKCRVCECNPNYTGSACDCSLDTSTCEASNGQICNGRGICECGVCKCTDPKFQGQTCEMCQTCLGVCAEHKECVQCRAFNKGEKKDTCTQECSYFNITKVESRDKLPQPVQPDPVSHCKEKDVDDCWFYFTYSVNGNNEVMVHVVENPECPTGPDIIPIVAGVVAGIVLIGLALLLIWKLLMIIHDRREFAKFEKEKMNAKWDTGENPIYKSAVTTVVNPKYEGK

The first test concerns the target T1, α4β1 integrin (Homo sapiens, UniProt P05556+P13612).
T1 construct: endogenous in cells; host or cells: Ramos cells
Put plainly: Inhibition of adhesion of calcein AM-labeled Ramos cells to CS1 (fibronectin) peptide-conjugated ovalbumin. It counts as cell-based. To be noted: Ramos; Table 2; compound at a concentration of 100 μM; read-out: % A (percent inhibition of cell adhesion). As to the method:
The ability of compounds of the present invention to inhibit binding is determined by a procedure in which a 26-amino acid peptide containing the CS1 sequence of fibronectin with an N-terminal Cys ([…]) was coupled to maleimide activated ovalbumin. Bovine serum albumin (BSA) and CS1 conjugated ovalbumin were coated onto 96-well polystyrene plates at 0.5 mg/ml in TBS (50 mM Tris, pH 7.5; 150 mM NaCl) at 4° C. for 16 hours. The plates were washed three times with TBS and blocked with TBS containing 3% BSA at room temperature for 4 hours. Blocked plates were washed three times in binding buffer (TBS; 1 mM MgCl2; 1 mM CaCl2; 1 mM MnCl2) prior to assay. Ramos cells fluorescently labeled with calcein AM were resuspended in binding buffer (10^7 cells/ml) and diluted 1:2 with same buffer with or without compound. The cells were added immediately to the wells (2.5×10^5 cells/well) and incubated for 30 minutes at 37° C. Following three washes with binding buffer, adherent cells were lysed and quantitated using a fluorometer. IC50 is defined as the dose required to give 50% inhibition. MS in Table 3 stands for Mass Spec. nd stands for not determined in the Tables. A stands for inhibition in Table 2, and the percent inhibition indicates the inhibition of cell adhesion when compound is included in the assay at a concentration of 100 μM. The lower the IC50 value and the greater the percentage of inhibition, the more efficient the compound is at prevention of cell adhesion.
On to `CCCC[C@@H](C(=O)N[C@@H](CC(=O)O)c1ccc2c(c1)OCO2)N1CCN(Cc2cccs2)C1=O` [(3S)-3-(1,3-benzodioxol-5-yl)-3-({(2S)-2-[2-oxo-3-(2-thienylmethyl)-1-imidazolidinyl]hexanoyl}amino)propanoic acid], for which the inhibition at 100 µM was 100%.

Still in this test, the particulars now being: Table 2; Ramos cell adhesion to CS1-conjugated ovalbumin, 30 minutes at 37° C.
As to `CCCC[C@@H](C(=O)N[C@@H](CC(=O)O)c1ccc2c(c1)OCO2)N1CCN(Cc2cccs2)C1=O` [(3S)-3-(1,3-benzodioxol-5-yl)-3-({(2S)-2-[2-oxo-3-(2-thienylmethyl)-1-imidazolidinyl]hexanoyl}amino)propanoic acid], the IC50 is 150 nM.

The test is the same for the next values; noted with them: Table 3; Ramos cell adhesion to CS1-conjugated ovalbumin, 30 minutes at 37° C.
Consider `CCCC[C@@H](C(=O)N[C@@H](CC(=O)O)c1ccc2c(c1)OCO2)n1c(=O)c2ccccc2n(Cc2ccccc2)c1=O` [(3S)-3-(1,3-benzodioxol-5-yl)-3-({(2S)-2-[2,4-dioxo-1-(phenylmethyl)-1,4-dihydro-3(2H)-quinazolinyl]hexanoyl}amino)propanoic acid], for which the IC50 is 100 nM.

For the compound `CCCC[C@@H](C(=O)N[C@@H](CC(=O)O)c1ccc2c(c1)OCO2)N1CC(=O)N(Cc2cccs2)c2ccccc2C1=O` [(3S)-3-(1,3-benzodioxol-5-yl)-3-({(2S)-2-[2,5-dioxo-1-(2-thiophenylmethyl)-1,2,3,5-tetrahydro-4H-1,4-benzodiazepin-4-yl]hexanoyl}amino)propanoic acid], the IC50 was 1500 nM. Same read-out and setting: the value for `CCCC[C@@H](C(=O)N[C@@H](CC(=O)O)c1ccc2c(c1)OCO2)n1cccc(C(=O)c2ccccc2)c1=O` [(3S)-3-(1,3-benzodioxol-5-yl)-3-({(2S)-2-[2-oxo-3-(phenylcarbonyl)-1(2H)-pyridinyl]hexanoyl}amino)propanoic acid] was 550 nM; that for `CCCC[C@@H](C(=O)N[C@@H](CC(=O)O)c1ccc2c(c1)OCO2)n1cccc(Cc2ccccc2)c1=O` [(3S)-3-(1,3-benzodioxol-5-yl)-3-({(2S)-2-[2-oxo-3-(phenylmethyl)-1(2H)-pyridinyl]hexanoyl}amino)propanoic acid] was 4 nM. The same measure, in the same setting: under `CCCC[C@@H](C(=O)N[C@@H](CC(=O)O)c1ccc2c(c1)OCO2)N1CC(=O)N(Cc2cccs2)[C@@H](Cc2ccccc2)C1=O` [(3S)-3-(1,3-benzodioxol-5-yl)-3-({(2S)-2-[(3S)-2,5-dioxo-3-(phenylmethyl)-4-(2-thiophenylmethyl)tetrahydro-1(2H)-pyrazinyl]hexanoyl}amino)propanoic acid] stands 6000 nM.

Still in this test, the particulars now being: Table 4; Ramos cell adhesion to CS1-conjugated ovalbumin, 30 minutes at 37° C.
On to `CCCCC(C(=O)N[C@@H](CC(=O)O)c1ccc2c(c1)OCO2)n1cccc(Cc2ccccc2)c1=O` (stereo partly drawn) [(3S)-3-(1,3-benzodioxol-5-yl)-3-{[2-(3-benzyl-2-oxopyridin-1(2H)-yl)hexanoyl]amino}propanoic acid], for which the IC50 was 30 nM.

Regarding `CCCC[C@H](C(=O)N[C@@H](CC(=O)O)c1ccc2c(c1)OCO2)n1cc(C)c(O)c(Cc2ccccc2)c1=O` [(3S)-3-(1,3-benzodioxol-5-yl)-3-{[(2R)-2-(3-benzyl-4-hydroxy-5-methyl-2-oxopyridin-1(2H)-yl)hexanoyl]amino}propanoic acid], the IC50 is 2000 nM. With `CCCC[C@@H](C(=O)N[C@@H](CC(=O)O)c1ccc2c(c1)OCO2)n1cc(C)c(O)c(Cc2ccccc2)c1=O` [(3S)-3-(1,3-benzodioxol-5-yl)-3-{[(2S)-2-(3-benzyl-4-hydroxy-5-methyl-2-oxopyridin-1(2H)-yl)hexanoyl]amino}propanoic acid], the concentration for half-maximal inhibition (IC50) is 200 nM.

For `CCCCC(C(=O)N[C@@H](CC(=O)O)c1ccc2ccn(C)c2c1)n1cc(C)cc(Cc2ccccc2)c1=O` (stereo partly drawn) [(3S)-3-(1-methyl-1H-indol-6-yl)-3-({2-[5-methyl-2-oxo-3-(phenylmethyl)-1(2H)-pyridinyl]hexanoyl}amino)propanoic acid], the IC50 was 10 nM. The same measure, in the same setting: the value for `CCCCC(C(=O)N[C@@H](CC(=O)O)c1ccc2c(c1)CCC2)n1cc(C)cc(Cc2ccccc2)c1=O` (stereo partly drawn) [(3S)-3-(2,3-dihydro-1H-inden-5-yl)-3-({2-[5-methyl-2-oxo-3-(phenylmethyl)-1(2H)-pyridinyl]hexanoyl}amino)propanoic acid] was 63 nM.

On to `CCCCC(C(=O)N[C@@H](CC(=O)O)c1ccc2c(c1)CCC2)n1cc(C)cc(Cc2ccc3ccccc3c2)c1=O` (stereo partly drawn) [(3S)-3-(2,3-dihydro-1H-inden-5-yl)-3-({2-[5-methyl-3-(2-naphthalenylmethyl)-2-oxo-1(2H)-pyridinyl]hexanoyl}amino)propanoic acid], for which the IC50 was 283 nM.
